In brackets after ≈: the same amount, converted by molar mass. Where a name gives a salt, the structure may show the parent alone. Read-outs that look alike come from different tables or passages of the source. Each block holds one compound with its values, some of them ahead of it.
Legend:
[1] = cited from earlier work
[2] = intravenous administration of metformin HCl to rats; details: for Metformin base plasma concentration, Average / Metformin base plasma concentration, Rat2 / Metformin base plasma concentration, Rat3 / Metformin base plasma concentration, Rat1: 2 mg/kg intravenously
in vivo [3] = details: Sprague-Dawley, rat, plasma, iv, 2 mg/kg
[4] = for macroscopic evaluation of the G.I. tract for signs of irritation: end of oral gavage study; for time of plasma concentration maximum after treatment: rat, in vivo, po
in vivo [5] = details: rat, po, 40 mg/kg
[6] = in vivo colonic absorption using flushed ligated colonic model in rats; details: 10 mg/rat intubated into ligated colon
in vivo [7] = details: male, Sprague-Dawley, rat, plasma, other: intracolonic bolus, ligated colon, 10 mg/rat
[8] = in vivo
[9] = conductivity of complexes in aqueous solutions; details: aqueous solution pH≅5.8, 23° C.

Compound: CCCCCCCCCCCC(=O)O [Lauric (12), lauric acid]
Solubility in Acetic acid ([1]; 20° C.): 818 mg/mL (≈ 4080 mM)
Solubility in Acetone ([1]; 20° C.): 605 mg/mL (≈ 3020 mM)
Solubility in Acetonitrile ([1]; 20° C.): 76 mg/mL (≈ 379 mM)
Solubility in Benzene ([1]; 20° C.): 936 mg/mL (≈ 4670 mM)
Solubility in Chloroform ([1]; 20° C.): 830 mg/mL (≈ 4140 mM)
Solubility in Cyclohexanne ([1]; 20° C.): 680 mg/mL (≈ 3390 mM)
Solubility in Ethanol 95% ([1]; 20° C.): 912 mg/mL (≈ 4550 mM)
Solubility in Methanol ([1]; 20° C.): 1200 mg/mL (≈ 5990 mM)

Compound: CN(C)C(=N)N=C(N)N [Metformin HCl, metformin hydrochloride]
Metformin base plasma concentration, Average ([2]; Time 0 h): 0.0 ng/mL
Metformin base plasma concentration, Rat2 ([2]; Time 0 h): 0 ng/mL
Metformin base plasma concentration, Rat3 ([2]; Time 0 h): 0 ng/mL
Metformin base plasma concentration, Average ([2]; Time 2 min): 2483.3 ng/mL
Metformin base plasma concentration, Rat1 ([2]; Time 2 min): 1430 ng/mL
Metformin base plasma concentration, Rat2 ([2]; Time 2 min): 2370 ng/mL
Metformin base plasma concentration, Rat3 ([2]; Time 2 min): 3650 ng/mL
Metformin base plasma concentration, Average ([2]; Time 0.5 h): 229.2 ng/mL
Metformin base plasma concentration, Rat1 ([2]; Time 0.5 h): 262 ng/mL
Metformin base plasma concentration, Rat2 ([2]; Time 0.5 h): 331 ng/mL
Metformin base plasma concentration, Rat3 ([2]; Time 0.5 h): 94.7 ng/mL
Metformin base plasma concentration, Average ([2]; Time 1 h): 30.4 ng/mL
Metformin base plasma concentration, Rat3 ([2]; Time 1 h): 25.2 ng/mL
Metformin base plasma concentration, Average ([2]; Time 1.5 h): 22.1 ng/mL
Metformin base plasma concentration, Rat1 ([2]; Time 1.5 h): 0 ng/mL
Metformin base plasma concentration, Rat2 ([2]; Time 1.5 h): 66.3 ng/mL
Metformin base plasma concentration, Rat3 ([2]; Time 1.5 h): 0 ng/mL
Metformin base plasma concentration, Average ([2]; Time 2 h): 0.0 ng/mL
Metformin base plasma concentration, Rat2 ([2]; Time 2 h): 0 ng/mL
Metformin base plasma concentration, Rat3 ([2]; Time 2 h): 0 ng/mL
Metformin base plasma concentration, Average ([2]; Time 3 h): 0.0 ng/mL
Metformin base plasma concentration, Rat2 ([2]; Time 3 h): 0 ng/mL
Metformin base plasma concentration, Rat3 ([2]; Time 3 h): 0 ng/mL
Area Under the Curve (0-4 hrs, based on 1 mg base/rat) ([2]; i.v.): 692.5 ng · h/mL-mg
concentration at 0 h (in vivo [3]): 0 ng/mL
concentration at 1 h (in vivo [3]): 35.5 ng/mL
concentration at 2 h (in vivo [3]): 0 ng/mL
concentration at 3 h (in vivo [3]): 0 ng/mL
macroscopic evaluation of the G.I. tract for signs of irritation [4]: No irritation
time of plasma concentration maximum after treatment [4]: about 1 hour
Cmax (in vivo [5]): ~4080 ng/mL
Area Under the Curve (0-4 hrs, based on 1 mg base/rat) [6]: 29.2 ng · h/mL-mg
concentration at 0 h (in vivo [7]): 0 ng/mL

Compound: CCCCCCCCCC(=O)O.CN(C)C(=N)N=C(N)N [Metformin caprate]
Area Under the Curve (0-4 hrs, based on 1 mg base/rat) [8]: 548.0 ng · h/mL-mg

Compound: CCCCCCCCCCCC(=O)O.CN(C)C(=N)N=C(N)N [Metformin laurate]
Area Under the Curve (0-4 hrs, based on 1 mg base/rat) [8]: 674.5 ng · h/mL-mg
macroscopic evaluation of the G.I. tract for signs of irritation [4]: No irritation
time of plasma concentration maximum after treatment [4]: about 1 hour

Compound: CCCCCCCCCCCCCC(=O)O [myristic (14), myristic acid]
Solubility in Acetic acid [1]: 102 mg/mL (≈ 447 mM)
Solubility in Acetone [1]: 159 mg/mL (≈ 696 mM)
Solubility in Acetonitrile [1]: 18 mg/mL (≈ 78.8 mM)
Solubility in Benzene [1]: 292 mg/mL (≈ 1280 mM)
Solubility in Chloroform [1]: 325 mg/mL (≈ 1420 mM)
Solubility in Cyclohexanne [1]: 215 mg/mL (≈ 941 mM)
Solubility in Ethanol 95% [1]: 189 mg/mL (≈ 828 mM)
Solubility in Methanol [1]: 173 mg/mL (≈ 758 mM)

Conductivity ([9]; metformin concentration 5 mM): 136 μS/cm
Conductivity ([9]; metformin concentration 10 mM): 235 μS/cm
Conductivity ([9]; metformin concentration 20 mM): 405 μS/cm
Area Under the Curve (0-4 hrs, based on 1 mg base/rat) [6]: 408.3 ng · h/mL-mg
Compound: Metformin oleate
